Source: ChEMBL document CHEMBL1201861, “Genomics of Drug Sensitity in Cancer screening data, Wellcome Trust Sanger Institute”

Experiments:
Experiment in all cases: cells
Format in all cases: functional, cell-based, Homo sapiens
[1] = tested on: NCI-H1693; settings: Homo sapiens, NCI-H1693;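 further: growth inhibition of the human cell line, read out with a cell viability assay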
Description: SANGER: Inhibition of human NCI-H1693 cell growth in a cell viability assay.

[2] = tested on: ChaGo-K-1; settings: Homo sapiens, ChaGo-K-1;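 further: growth inhibition of ChaGo-K-1 cells, read out with a cell viability assay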
Description: SANGER: Inhibition of human ChaGo-K-1 cell growth in a cell viability assay.

[3] = tested on: HOS; settings: Homo sapiens, HOS;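 further: growth inhibition of human HOS cells, read out with a cell viability assay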
Description: SANGER: Inhibition of human HOS cell growth in a cell viability assay.

[4] = tested on: COLO-792; settings: Homo sapiens, COLO-792
Description: SANGER: Inhibition of human COLO-792 cell growth in a cell viability assay.

[5] = tested on: T-24; settings: Homo sapiens, T-24;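 further: growth inhibition of T-24 cells, read out with a cell viability assay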
Description: SANGER: Inhibition of human T-24 cell growth in a cell viability assay.

[6] = tested on: UMUC3; settings: Homo sapiens, UMUC3;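 further: growth inhibition of human UM-UC-3 cells, read out with a cell viability assay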
Description: SANGER: Inhibition of human UM-UC-3 cell growth in a cell viability assay.

[7] = tested on: NCI-H1703; settings: Homo sapiens, NCI-H1703;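 further: growth inhibition of NCI-H1703 cells, read out via a cell viability assay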
Description: SANGER: Inhibition of human NCI-H1703 cell growth in a cell viability assay.

[8] = tested on: RVH-421; settings: Homo sapiens, RVH-421
Description: SANGER: Inhibition of human RVH-421 cell growth in a cell viability assay.

[9] = tested on: HT-1080; settings: Homo sapiens, HT-1080
Description: SANGER: Inhibition of human HT-1080 cell growth in a cell viability assay.

[10] = tested on: KYSE-180; settings: Homo sapiens, KYSE-180;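 further: growth inhibition of KYSE-180 cells, read out with a cell viability assay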
Description: SANGER: Inhibition of human KYSE-180 cell growth in a cell viability assay.

[11] = tested on: NCI-H2122; settings: Homo sapiens, NCI-H2122;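 further: growth inhibition of the cells, read out with a cell viability assay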
Description: SANGER: Inhibition of human NCI-H2122 cell growth in a cell viability assay.

[12] = tested on: FaDu; settings: Homo sapiens, FaDu;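 further: cell viability readout of growth inhibition in FaDu cells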
Description: SANGER: Inhibition of human FADU cell growth in a cell viability assay.

[13] = tested on: MDA-MB-157; settings: Homo sapiens, MDA-MB-157
Description: SANGER: Inhibition of human MDA-MB-157 cell growth in a cell viability assay.

[14] = tested on: HCC1954; settings: Homo sapiens, HCC1954;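 further: growth inhibition of human HCC1954 cells, read out with a cell viability assay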
Description: SANGER: Inhibition of human HCC1954 cell growth in a cell viability assay.

[15] = tested on: G-401; settings: Homo sapiens, G-401
Description: SANGER: Inhibition of human G-401 cell growth in a cell viability assay.

[16] = tested on: NCI-H1623; settings: Homo sapiens, NCI-H1623;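 further: cell viability assay used as the read-out for growth inhibition of NCI-H1623 cells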
Description: SANGER: Inhibition of human NCI-H1623 cell growth in a cell viability assay.

[17] = tested on: CaR-1; settings: Homo sapiens, CaR-1;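 further: growth inhibition of human CaR-1 cancer cells, read out with a cell viability assay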
Description: SANGER: Inhibition of human CaR-1 cell growth in a cell viability assay.

[18] = tested on: NCI-H460; settings: Homo sapiens, NCI-H460;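 further: cell viability assay scoring growth inhibition of human NCI-H460 cells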
Description: SANGER: Inhibition of human NCI-H460 cell growth in a cell viability assay.

[19] = tested on: CAL-12T; settings: Homo sapiens, CAL-12T;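 further: growth inhibition of human CAL-12T cells, read out with a cell viability assay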
Description: SANGER: Inhibition of human CAL-12T cell growth in a cell viability assay.

[20] = tested on: MOLT-13; settings: Homo sapiens, MOLT-13;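 further: IC50 for suppression of MOLT-13 cell growth, read out with a cell viability assay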
Description: SANGER: Inhibition of human MOLT-13 cell growth in a cell viability assay.

[21] = tested on: SW-620; settings: Homo sapiens, SW-620;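 further: growth inhibition of human SW-620 cells, measured by a cell viability assay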
Description: SANGER: Inhibition of human SW620 cell growth in a cell viability assay.

[22] = tested on: MC-IXC; settings: Homo sapiens, MC-IXC;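 further: growth inhibition of MC-IXC cells, read out with a cell viability assay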
Description: SANGER: Inhibition of human MC-IXC cell growth in a cell viability assay.

[23] = tested on: GMS-10; settings: Homo sapiens, GMS-10;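 further: growth inhibition of GMS-10 cells, read out as cell viability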
Description: SANGER: Inhibition of human GMS-10 cell growth in a cell viability assay.

[24] = tested on: DMS-273; settings: Homo sapiens, DMS-273
Description: SANGER: Inhibition of human DMS-273 cell growth in a cell viability assay.

[25] = tested on: A2780; settings: Homo sapiens, A2780;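 further: growth inhibition of A2780 cells, read out with a cell viability assay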
Description: SANGER: Inhibition of human A2780 cell growth in a cell viability assay.

[26] = tested on: HT55; settings: Homo sapiens, HT55;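 further: cell viability readout measuring growth inhibition of human HT55 cells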
Description: SANGER: Inhibition of human HT55 cell growth in a cell viability assay.

[27] = tested on: Capan-2; settings: Homo sapiens, Capan-2;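 further: Capan-2 cell growth inhibition, read out with a viability assay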
Description: SANGER: Inhibition of human Capan-2 cell growth in a cell viability assay.

[28] = tested on: SK-OV-3; settings: Homo sapiens, SK-OV-3;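 further: growth inhibition of SK-OV-3 human cells, read out with a cell viability assay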
Description: SANGER: Inhibition of human SK-OV-3 cell growth in a cell viability assay.

[29] = tested on: NB14; settings: Homo sapiens, NB14;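 further: growth inhibition of NB14 cells measured with a cell viability assay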
Description: SANGER: Inhibition of human NB14 cell growth in a cell viability assay.

[30] = tested on: OE19; settings: Homo sapiens, OE19;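 further: growth inhibition of OE19 cells, measured through a cell viability read-out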
Description: SANGER: Inhibition of human OE19 cell growth in a cell viability assay.

[31] = tested on: NCI-H1792; settings: Homo sapiens, NCI-H1792;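 further: growth inhibition of human NCI-H1792 cells, read out as cell viability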
Description: SANGER: Inhibition of human NCI-H1792 cell growth in a cell viability assay.

[32] = tested on: HN; settings: Homo sapiens, HN
Description: SANGER: Inhibition of human HN cell growth in a cell viability assay.

[33] = tested on: COLO-680N; settings: Homo sapiens, COLO-680N;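 further: cell viability assay used to measure inhibition of COLO-680N cell growth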
Description: SANGER: Inhibition of human COLO-680N cell growth in a cell viability assay.

[34] = tested on: CAL-54; settings: Homo sapiens, CAL-54;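 further: growth inhibition of CAL-54 cells, read out by a viability measurement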
Description: SANGER: Inhibition of human CAL-54 cell growth in a cell viability assay.

[35] = tested on: Hs-578T; settings: Homo sapiens, Hs-578T
Description: SANGER: Inhibition of human Hs-578-T cell growth in a cell viability assay.

[36] = tested on: KYSE-450; settings: Homo sapiens, KYSE-450;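 further: cell growth inhibition measured by a viability assay in human KYSE-450 cells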
Description: SANGER: Inhibition of human KYSE-450 cell growth in a cell viability assay.

[37] = tested on: NCI-H522; settings: Homo sapiens, NCI-H522;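 further: cell viability assay measuring growth inhibition of human NCI-H522 cells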
Description: SANGER: Inhibition of human NCI-H522 cell growth in a cell viability assay.

Structure (SMILES) | IC50 [1] [µM] | IC50 [2] [µM] | IC50 [3] [µM] | IC50 [4] [µM] | IC50 [5] [µM] | IC50 [6] [µM] | IC50 [8] [µM] | IC50 [9] [µM] | IC50 [10] [µM] | IC50 [11] [µM] | IC50 [12] [µM] | IC50 [13] [µM] | IC50 [14] [µM] | IC50 [15] [µM] | IC50 [16] [µM] | IC50 [17] [µM] | IC50 [18] [µM] | IC50 [19] [µM] | IC50 [20] [µM] | IC50 [21] [µM] | other results
CC(C)CCN1c2nc(Nc3cc(F)c(O)c(F)c3)ncc2N(C)C(=O)C1C (centres undefined) | > 5 | > 5 | 4.46 | > 5 | > 5 | > 5 | > 5 | > 5 | > 5 | > 5 | > 5 | 4.31 | 4.26 | > 5 | > 5 | > 5 | > 5 | 4.06 | 3.97 | > 5 | IC50 [7]: > 5 µM; IC50 [22]: 0.796 µM; IC50 [23]: 3.09 µM; IC50 [24]: > 5 µM; IC50 [25]: > 5 µM; IC50 [26]: > 5 µM; IC50 [27]: > 5 µM; IC50 [28]: > 5 µM; IC50 [29]: 2.11 µM; IC50 [30]: > 5 µM; IC50 [31]: 2.74 µM; IC50 [32]: 1.61 µM; IC50 [33]: > 5 µM; IC50 [34]: > 5 µM; IC50 [35]: > 5 µM; IC50 [36]: > 5 µM; IC50 [37]: > 5 µM
CC1(C)CNc2cc(NC(=O)c3cccnc3NCc3ccncc3)ccc21 [MOTESANIB] | > 2 | > 2 | > 2 | > 2 | > 2 | > 2 | > 2 | > 2 | > 2 | > 2 | > 2 | > 2 | > 2 | > 2 | > 2 | > 2 | > 2 | > 2 | > 2 | > 2 | IC50 [22]: > 2 µM; IC50 [23]: > 2 µM; IC50 [24]: > 2 µM; IC50 [25]: > 2 µM; IC50 [26]: > 2 µM; IC50 [27]: > 2 µM; IC50 [28]: > 2 µM; IC50 [29]: > 2 µM; IC50 [30]: > 2 µM; IC50 [31]: > 2 µM; IC50 [32]: > 2 µM; IC50 [33]: > 2 µM; IC50 [34]: > 2 µM; IC50 [35]: > 2 µM; IC50 [36]: > 2 µM; IC50 [37]: > 2 µM
CCN(CC)CCCCNc1ncc2cc(-c3cc(OC)cc(OC)c3)c(NC(=O)NC(C)(C)C)nc2n1 [PD-173074] | > 2 | > 2 | > 2 | > 2 | > 2 | > 2 | > 2 | > 2 | > 2 | > 2 | > 2 | > 2 | > 2 | > 2 | > 2 | > 2 | > 2 | > 2 | > 2 | > 2 | IC50 [22]: > 2 µM; IC50 [23]: > 2 µM; IC50 [24]: > 2 µM; IC50 [25]: > 2 µM; IC50 [26]: > 2 µM; IC50 [27]: > 2 µM; IC50 [28]: > 2 µM; IC50 [29]: > 2 µM; IC50 [30]: > 2 µM; IC50 [31]: > 2 µM; IC50 [32]: > 2 µM; IC50 [33]: > 2 µM; IC50 [34]: > 2 µM; IC50 [35]: > 2 µM; IC50 [36]: > 2 µM; IC50 [37]: > 2 µM
